The supplement of paper PMC10307832

Experiments:
Experiment in all cases: relative viability (nuclei count vs DMSO), 5 days (fraction); higher = more cells survive
Elesclomol + Alpelisib = compound: CN(NC(=O)CC(=O)NN(C)C(=S)c1ccccc1)C(=S)c1ccccc1 [Elesclomol] + Cc1nc(NC(=O)N2CCC[C@H]2C(N)=O)sc1-c1ccnc(C(C)(C)C(F)(F)F)c1 [Alpelisib] (partner 2 µM)
Method in brief: (§1)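 Lung cancer cell lines, seeded in 1536-well plates, were treated the following day by pin tool with a single drug or with five library-drug doses (not always all listed) in √10 steps on top of a fixed anchor-drug dose. Cells were fixed and nuclei stained in one step after 5 days, and nuclei were counted. Relative viability is the nuclei count for treated wells divided by that for vehicle wells, reported as medians of duplicate plates.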

Elesclomol + Lapatinib = compound: CN(NC(=O)CC(=O)NN(C)C(=S)c1ccccc1)C(=S)c1ccccc1 [Elesclomol] + CS(=O)(=O)CCNCc1ccc(-c2ccc3ncnc(Nc4ccc(OCc5cccc(F)c5)c(Cl)c4)c3c2)o1 [Lapatinib] (partner 2 µM)
Method in brief: as §1

Elesclomol + Dasatinib = compound: CN(NC(=O)CC(=O)NN(C)C(=S)c1ccccc1)C(=S)c1ccccc1 [Elesclomol] + Cc1nc(Nc2ncc(C(=O)Nc3c(C)cccc3Cl)s2)cc(N2CCN(CCO)CC2)n1 [Dasatinib] (partner 0.075 µM)
Method in brief: as §1

Elesclomol + Phenformin = compound: CN(NC(=O)CC(=O)NN(C)C(=S)c1ccccc1)C(=S)c1ccccc1 [Elesclomol] + N=C(N)NC(=N)NCCc1ccccc1 [Phenformin] (partner 250 µM)
Method in brief: as §1

Elesclomol + AZD7762 = compound: CN(NC(=O)CC(=O)NN(C)C(=S)c1ccccc1)C(=S)c1ccccc1 [Elesclomol] + NC(=O)Nc1cc(-c2cccc(F)c2)sc1C(=O)N[C@H]1CCCNC1 [AZD7762] (partner 0.2 µM)
Method in brief: as §1

Cell Line | relative viability (Elesclomol + Alpelisib; first compound 0.003162 µM) | relative viability (Elesclomol + Alpelisib; first compound 0.01 µM) | relative viability (Elesclomol + Alpelisib; first compound 0.03162 µM) | relative viability (Elesclomol + Alpelisib; first compound 0.1 µM) | relative viability (Elesclomol + Lapatinib; first compound 0.003162 µM) | relative viability (Elesclomol + Lapatinib; first compound 0.01 µM) | relative viability (Elesclomol + Lapatinib; first compound 0.03162 µM) | relative viability (Elesclomol + Lapatinib; first compound 0.1 µM) | relative viability (Elesclomol + Dasatinib; first compound 0.003162 µM) | relative viability (Elesclomol + Dasatinib; first compound 0.01 µM) | relative viability (Elesclomol + Dasatinib; first compound 0.03162 µM) | relative viability (Elesclomol + Dasatinib; first compound 0.1 µM) | relative viability (Elesclomol + Phenformin; first compound 0.003162 µM) | relative viability (Elesclomol + Phenformin; first compound 0.01 µM) | relative viability (Elesclomol + Phenformin; first compound 0.03162 µM) | relative viability (Elesclomol + Phenformin; first compound 0.1 µM) | relative viability (Elesclomol + AZD7762; first compound 0.003162 µM) | relative viability (Elesclomol + AZD7762; first compound 0.01 µM) | relative viability (Elesclomol + AZD7762; first compound 0.03162 µM) | relative viability (Elesclomol + AZD7762; first compound 0.1 µM)
NCI-H661 | 0.619 | 0.387 | 0.2 | 0.234 | 0.368 | 0.205 | 0.236 | 0.186 | 0.869 | 0.477 | 0.223 | 0.177 | 0.272 | 0.305 | 0.25 | 0.193 | – | – | – | –
NCI-H1650 | – | – | – | – | 0.38 | 0.277 | 0.184 | 0.17 | 0.21 | 0.17 | 0.156 | 0.154 | 0.315 | 0.211 | 0.173 | 0.133 | – | – | – | –
NCI-H1703 | 0.225 | 0.135 | 0.0986 | 0.0874 | 0.262 | 0.216 | 0.157 | 0.129 | – | – | – | – | – | – | – | – | 0.132 | 0.0974 | 0.124 | 0.0978
NCI-H2009 | 1.21 | 0.885 | 0.458 | 0.14 | 0.841 | 0.178 | 0.136 | 0.107 | 0.263 | 0.126 | 0.112 | 0.0747 | 0.344 | 0.239 | 0.243 | 0.107 | – | – | – | –
NCI-H2023 | 0.604 | 0.236 | 0.269 | 0.074 | 0.384 | 0.266 | 0.0556 | 0.0486 | 0.421 | 0.117 | 0.0528 | 0.0413 | 0.349 | 0.217 | 0.145 | 0.0642 | – | – | – | –
NCI-H2228 | 0.569 | 0.5 | 0.198 | 0.0389 | 0.953 | 0.66 | 0.33 | 0.103 | 0.545 | 0.269 | 0.2 | 0.039 | 0.294 | 0.188 | 0.159 | 0.0554 | – | – | – | –
SK-LU-1 | 0.987 | 0.674 | 0.294 | 0.1 | 0.908 | 0.518 | 0.333 | 0.105 | 0.199 | 0.197 | 0.161 | 0.0738 | 0.643 | 0.287 | 0.305 | 0.161 | – | – | – | –
SK-MES-1 | 0.854 | 0.502 | 0.679 | 0.279 | 0.563 | 0.446 | 0.429 | 0.325 | 0.413 | 0.25 | 0.187 | 0.148 | 0.644 | 0.456 | 0.506 | 0.421 | – | – | – | –
SW 900 | – | – | – | – | – | – | – | – | 0.626 | 0.41 | 0.144 | 0.196 | 0.521 | 0.337 | 0.178 | 0.0792 | 0.709 | 0.54 | 0.272 | 0.103
SW 1573 | 0.728 | 0.211 | 0.143 | 0.0815 | 1.04 | 0.517 | 0.185 | 0.135 | 0.192 | 0.094 | 0.043 | 0.0143 | 0.274 | 0.114 | 0.159 | 0.0405 | – | – | – | –
UMC-11 | 0.949 | 0.931 | 0.488 | 0.363 | 0.952 | 0.837 | 0.505 | 0.328 | 0.439 | 0.423 | 0.374 | 0.235 | 0.312 | 0.343 | 0.328 | 0.31 | – | – | – | –
